Experimental data from PubChem BioAssay (NCI).
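Results reflect a 48-hour exposure of cells in 96-well plates to compound at five concentrations. Here, GI50 denotes the concentration required for 50% inhibition of growth. At the TGI there is no net growth.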

Columns and labels:
Test in all cases: NCI-60 cell line screen, 48 h
786-0 renal = test system: 786-0 renal
A549 NSCLC = test system: A549 NSCLC
ACHN renal = test system: ACHN renal
BT-549 breast = test system: BT-549 breast
CAKI-1 renal = test system: CAKI-1 renal
CCRF-CEM leukemia = test system: CCRF-CEM leukemia
COLO 205 colon = test system: COLO 205 colon
DU-145 prostate = test system: DU-145 prostate
EKVX NSCLC = test system: EKVX NSCLC
HCC-2998 colon = test system: HCC-2998 colon
HCT-116 colon = test system: HCT-116 colon
HCT-15 colon = test system: HCT-15 colon
HL-60(TB) leukemia = test system: HL-60(TB) leukemia
HOP-62 NSCLC = test system: HOP-62 NSCLC
HOP-92 NSCLC = test system: HOP-92 NSCLC
HS 578T breast = test system: HS 578T breast
HT29 colon = test system: HT29 colon
IGROV1 ovarian = test system: IGROV1 ovarian
K-562 leukemia = test system: K-562 leukemia
KM12 colon = test system: KM12 colon
LOX IMVI melanoma = test system: LOX IMVI melanoma
MALME-3M melanoma = test system: MALME-3M melanoma
MCF7 breast = test system: MCF7 breast
MDA-MB-231 breast = test system: MDA-MB-231 breast
MDA-MB-435 = test system: MDA-MB-435
MDA-MB-468 breast = test system: MDA-MB-468 breast
MOLT-4 leukemia = test system: MOLT-4 leukemia
NCI-H226 lung = test system: NCI-H226 lung
NCI-H23 lung = test system: NCI-H23 lung
NCI-H460 lung = test system: NCI-H460 lung
NCI-H522 lung = test system: NCI-H522 lung
OVCAR-3 ovarian = test system: OVCAR-3 ovarian
OVCAR-4 ovarian = test system: OVCAR-4 ovarian
OVCAR-5 ovarian = test system: OVCAR-5 ovarian
OVCAR-8 ovarian = test system: OVCAR-8 ovarian
PC-3 prostate = test system: PC-3 prostate
RPMI-8226 leukemia = test system: RPMI-8226 leukemia
RXF 393 renal = test system: RXF 393 renal
SF-268 CNS = test system: SF-268 CNS
SF-295 CNS = test system: SF-295 CNS
SF-539 CNS = test system: SF-539 CNS
SK-MEL-2 melanoma = test system: SK-MEL-2 melanoma
SK-MEL-28 melanoma = test system: SK-MEL-28 melanoma
SK-OV-3 ovarian = test system: SK-OV-3 ovarian
SN12C renal = test system: SN12C renal
SNB-19 CNS = test system: SNB-19 CNS
SNB-75 CNS = test system: SNB-75 CNS
SR leukemia = test system: SR leukemia
T-47D breast = test system: T-47D breast
TK-10 renal = test system: TK-10 renal
U251 CNS = test system: U251 CNS
UACC-257 melanoma = test system: UACC-257 melanoma
UACC-62 melanoma = test system: UACC-62 melanoma
UO-31 renal = test system: UO-31 renal

## CC1=C2C(=C[C@@](C)(CO)[C@@H]2O)/C(=N\N)[C@](C)(O)C12CC2
786-0 renal
  GI50: 2970 nM
  TGI: 9080 nM
A549 NSCLC
  GI50: 2390 nM
  TGI: 22800 nM
ACHN renal
  GI50: 860 nM
  TGI: 5180 nM
BT-549 breast
  GI50: 1690 nM
  TGI: 4430 nM
CAKI-1 renal
  GI50: 2440 nM
  TGI: > 100000 nM
CCRF-CEM leukemia
  GI50: 2930 nM
  TGI: > 100000 nM
COLO 205 colon
  GI50: 1650 nM
  TGI: 3650 nM
DU-145 prostate
  GI50: 812 nM
  TGI: 30500 nM
EKVX NSCLC
  GI50: 2170 nM
  TGI: 5520 nM
HCC-2998 colon
  GI50: 1790 nM
  TGI: 3770 nM
HCT-116 colon
  GI50: 1330 nM
  TGI: > 100000 nM
HCT-15 colon
  GI50: 1540 nM
  TGI: > 100000 nM
HL-60(TB) leukemia
  GI50: 1440 nM
  TGI: 8870 nM
HOP-62 NSCLC
  GI50: 2230 nM
  TGI: 5320 nM
HOP-92 NSCLC
  GI50: 2540 nM
  TGI: 6750 nM
HS 578T breast
  GI50: 2880 nM
  TGI: 9440 nM
HT29 colon
  GI50: 1940 nM
  TGI: 8750 nM
IGROV1 ovarian
  GI50: 2390 nM
  TGI: 7620 nM
K-562 leukemia
  GI50: 2020 nM
  TGI: > 100000 nM
KM12 colon
  GI50: 2980 nM
  TGI: > 100000 nM
LOX IMVI melanoma
  GI50: 1620 nM
  TGI: 4990 nM
MALME-3M melanoma
  GI50: 1700 nM
  TGI: 3250 nM
MCF7 breast
  GI50: 405 nM
  TGI: > 100000 nM
MDA-MB-231 breast
  GI50: 2250 nM
  TGI: 6520 nM
MDA-MB-435
  GI50: 2230 nM
  TGI: 5580 nM
MDA-MB-468 breast
  GI50: 977 nM
  TGI: 2770 nM
MOLT-4 leukemia
  GI50: 2400 nM
  TGI: > 100000 nM
NCI-H226 lung
  GI50: 2110 nM
  TGI: 7440 nM
NCI-H23 lung
  GI50: 1080 nM
  TGI: 2900 nM
NCI-H460 lung
  GI50: 420 nM
  TGI: 6630 nM
NCI-H522 lung
  GI50: 1190 nM
  TGI: 3640 nM
OVCAR-3 ovarian
  GI50: 2630 nM
  TGI: 7050 nM
OVCAR-4 ovarian
  GI50: 2440 nM
  TGI: 7160 nM
OVCAR-5 ovarian
  GI50: 518 nM
  TGI: 33800 nM
OVCAR-8 ovarian
  GI50: 1860 nM
  TGI: 5120 nM
PC-3 prostate
  GI50: 2550 nM
  TGI: 15300 nM
RPMI-8226 leukemia
  GI50: > 100000 nM
  TGI: > 100000 nM
RXF 393 renal
  GI50: 1510 nM
  TGI: 3260 nM
SF-268 CNS
  GI50: 2660 nM
  TGI: 21800 nM
SF-295 CNS
  GI50: 1740 nM
  TGI: > 100000 nM
SF-539 CNS
  GI50: 1850 nM
  TGI: 3830 nM
SK-MEL-2 melanoma
  GI50: 1770 nM
  TGI: 3330 nM
SK-MEL-28 melanoma
  GI50: 2040 nM
  TGI: 4110 nM
SK-OV-3 ovarian
  GI50: 2910 nM
  TGI: 7870 nM
SN12C renal
  GI50: 2330 nM
  TGI: 6660 nM
SNB-19 CNS
  GI50: 2510 nM
  TGI: 8670 nM
SNB-75 CNS
  GI50: 1360 nM
  TGI: 4820 nM
SR leukemia
  GI50: 2120 nM
  TGI: > 100000 nM
T-47D breast
  GI50: 2200 nM
  TGI: 6710 nM
TK-10 renal
  GI50: 3100 nM
  TGI: 9250 nM
U251 CNS
  GI50: 416 nM
  TGI: > 100000 nM
UACC-257 melanoma
  GI50: 2250 nM
  TGI: 5190 nM
UACC-62 melanoma
  GI50: 1740 nM
  TGI: 3230 nM
UO-31 renal
  GI50: 1650 nM
  TGI: 4660 nM
